These results are taken from the OPERA property sets (Mansouri et al. 2018).

The conditions of this data set: 25 °C.

≈ marks a conversion by molar mass, not a printed value.

What is called solubility is how much of the substance goes into solution per volume. High values mean a readily soluble substance, low ones a poorly soluble substance. Turning to `CCCSP(=O)(OCC)SCCC`, the solubility was 3.09 mM (≈ 750 µg/mL).
The compound `CC(C)[C@H](C(=O)OC(C#N)c1cccc(Oc2ccccc2)c1)c1ccc(OC(F)F)cc1` (stereo partly drawn) showed a solubility of 0.000133 mM (≈ 0.06 µg/mL).
On to `CC(C)(C)C(=O)C(Oc1ccc(Cl)cc1)n1cncn1` (stereo not drawn), for which the solubility came out at 0.243 mM (≈ 71.5 µg/mL).
The figure for `CC(C)NC(=O)N1CC(=O)N(c2cc(Cl)cc(Cl)c2)C1=O` is 0.0421 mM (≈ 13.9 µg/mL); for `CCN(CC)C(=O)SCc1ccc(Cl)cc1` it is 0.109 mM (≈ 28 µg/mL); for `COP(=O)(NC(C)=O)SC` (stereo not drawn) it is 4470 mM (≈ 818000 µg/mL).
`COC(=O)c1ccccc1CS(=O)(=O)NC(=O)Nc1nc(OC)cc(OC)n1` registered a solubility of 0.292 mM (≈ 120 µg/mL).
The compound `COC(=O)Nc1cccc(OC(=O)Nc2cccc(C)c2)c1` showed a solubility of 0.0161 mM (≈ 4.85 µg/mL).
The figure for `CNC(=O)Oc1ccc(SC)c(C)c1` is 0.107 mM (≈ 22.5 µg/mL).
As for `O=C1C2CC=CCC2C(=O)N1SC(Cl)(Cl)Cl` (stereo not drawn), the solubility came to 0.017 mM (≈ 5.1 µg/mL).
As for `c1ccc2[nH]c(-c3cscn3)nc2c1`, the figure is 0.248 mM (≈ 50 µg/mL).
The figure for `Cn1c(=O)on(-c2ccc(Cl)c(Cl)c2)c1=O` is 0.00575 mM (≈ 1.5 µg/mL); for `CC(C)C(Nc1ccc(C(F)(F)F)cc1Cl)C(=O)OC(C#N)c1cccc(Oc2ccccc2)c1` (stereo not drawn) it is 6.29e-06 mM (≈ 0.00316 µg/mL).
